# Results as given in publication PMC9658513, “Discovery of Compounds That Selectively Repress the Amyloidogenic Processing of the Amyloid Precursor Protein: Design, Synthesis and Pharmacological Evaluation of Diphenylpyrazoles” (International Journal of Molecular Sciences, 2022).
# How the values were obtained:
# Assay type in all cases: cell-based, human
# [1] = test system: p62; test: Autophagic flux: p62 expression by Western blot; details: 24 h, compound at 3 µM, SY5Y-APP^wt cells, vs control; for fold induction at 3 µM: Homo sapiens
# From the text: Previous work dedicated to compounds of family C [22] has underlined the effect of our compounds on autophagic flux and the lysosomal degradation pathways. More precisely, the role of the amino side chains and their number was highlighted. Therefore, we assessed whether the activity of compounds involved the modulation of lysosomal activities toward the accumulation of APP-CTFs and AICD. Thus, we studied the effect of a selection of compounds on the autophagic flux, more particularly, we evaluated the effect of compounds 24, 33, 34, 57, 65, 67, 70, and 71 on two markers associated with autophagy: p62 and LC3-I lipidation into LC3-II. To the previous selection of efficient compounds decreasing Aβ1–x production and increasing CTFα and AICD, we added compound 65 with no cytotoxicity at 100 µM. As a comparison, we also selected compound 57 with a hydroxymethyl substituent as a control. In addition to CQ, bafilomycin A, a well-known inhibitor of autophagic flux, was used as a control. Treatment with compounds 67 and 71 induced an increase in p62 expression by 2.5 and 4-fold, respectively, compared to the control condition (Figure 3). […] An increase in the two markers was also observed with compound 57, but to a smaller extent (1.7-fold for p62 and 2-fold for LC3-I/LC3-II).
# (§1) The human neuroblastoma cell line SY5Y-APP^695WT was maintained in Dulbecco’s modified Eagle medium (DMEM, high glucose, pyruvate—GIBCO, Life Technologies, Carlsbad, CA, USA) supplemented with 10% fetal bovine serum, 2 mM L-glutamine, 1 mM non-essential amino acids and penicillin/streptomycin (GIBCO, Life Technologies, Carlsbad, CA, USA) at 37 °C in a 5% CO2 humidified incubator [36]. For compound treatment, a 10 mM stock solution was diluted in freshly supplemented DMEM medium to obtain the precise final concentration of the drug. Cells were plated at a density of 5 × 10^5 cells per well into 12-well plates and cultured with 1 mL supplemented DMEM cell medium for 24 h before compound exposure. The following day, the cell medium was replaced with fresh medium containing the compounds diluted at the indicated concentrations. Cells were treated for 24 h. At the end of the treatments, the cell medium was collected and kept at −80 °C until use, cells were rinsed once with PBS and extracted in 100 µL of Laemmli buffer (10 mM Tris, 20% glycerol, and 2% sodium dodecyl sulfate) using a cell-scraper. The cell lysate was further sonicated (30 pulses of 0.5 s, 60 Hz) for 5 min. Total protein concentration was determined using the Pierce BCA Protein Assay Kit (Thermo Scientific, Waltham, MA, USA) according to the manufacturer’s instructions. Samples were stored at −80 °C until analysis.
# Cell protein lysates were prepared for Western blot analysis by diluting the sample with 1 volume of NuPAGE® lithium dodecyl sulfate (LDS) 2X sample buffer supplemented with 20% NuPAGE® sample reducing agents (Invitrogen). Samples were heated for 10 min at 100 °C. Ten µg of total proteins per well were loaded onto precast 4–12% Criterion XT Bis-Tris polyacrylamide gels (Bio-Rad) and electrophoresis was achieved after applying a tension of 150 V for 90 min using a Criterion electrophoresis cell with the NuPAGE® MOPS SDS running buffer (1X). Proteins were transferred to a nitrocellulose membrane of […] pore size (G&E Healthcare, Madison, WI, USA) using the Criterion blotting system and applying a tension of 100 V for 45 min. To resolve proteins of low molecular weights such as carboxy-terminal fragments of APP, 12% Criterion XT Bis-Tris polyacrylamide gels (Bio-Rad, Hercules, CA, USA) were used, and electrophoresis was performed for 70 min at 150 V in a NuPAGE® MES SDS running buffer (1X). Proteins were transferred to a nitrocellulose membrane of 0.2 µm pore size (G&E Healthcare, Madison, WI, USA) at 100 V for 40 min. Molecular weight calibration was achieved using molecular weight markers (Novex and Magic Marks, Life Technologies, Carlsbad, CA, USA). […]
# [2] = test system: Aβ1–42 peptide secretion; test: Aβ1–42 secretion in cell medium by ELISA; details: SY5Y-APP^WT cells, 24 h treatment, mean ± SD of at least three experiments in triplicate
# Method in brief: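 SY5Y-APP^WT cells (SH-SY5Y human neuroblastoma stably expressing human wild-type APP695) were treated with compounds for 24 h in supplemented DMEM at 37 °C. Secreted Aβ1–40 and Aβ1–42 were quantified in the collected, centrifuged conditioned medium by ELISA, in pg/mL.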
# [3] = test system: sAPPβ secretion; test: sAPPβ secretion (MSD sAPPα/sAPPβ Multiplex Kit); details: SY5Y cells, mean ± SD of at least three experiments in triplicate
# Experimental: A selection of compounds with several selected activities was performed including sAPPα and sAPPβ, which were further explored. […] The decrease in Aβ could result from a decrease in either β- or γ-secretase cleavage or an increase in the α-secretase cleavage of APP. Thus, medium concentrations of sAPPβ and sAPPα, which are the β- and α-secretase extramembrane shed APP fragments, were determined after cell drug treatments.
# as §1
# Conditioned media of SY5Y-APP^695WT collected at the end of treatments were centrifuged at 1000× g for 5 min to eliminate cell debris.
# Aβ1–40/Aβ1–42 peptides, Aβx–38/Aβx–40/Aβx–42, and sAPPα/sAPPβ concentrations in pg/mL were determined, respectively, using amyloid-beta 40 and 42 Human ELISA Kits (Invitrogen), the V-PLEX Plus Aβ Peptide Panel 1 (4G8) Kit (Meso Scale Diagnostics, MSD R©, Rockville, MD, USA), and the sAPPα/sAPPβ Multiplex Kit (Meso Scale Diagnostics, MSD R©, Rockville, MD, USA) according to the manufacturer’s instructions.
# [4] = test system: SY5Y-APP^695WT cells; test: in vitro
# Method in brief: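 Cells seeded at 3 × 10^4 per well, attached 24 h, then exposed to drug for 72 h in DMEM with 10% SVF. Viability by MTS colorimetric assay, absorbance at 490 nm.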
Molecule,IC50 ([2]; Homo sapiens),fold induction at 3 µM [1],further results
"Cc1cn(-c2cccc(CO)c2)nc1-c1ccc(CN(C)CCCN(C)C)cc1 [Compound 57, (3-{3-[4-({[3-(Dimethylamino)propyl](methyl)amino}methyl)phenyl]-4-methyl-1H-pyrazol-1-yl}phenyl)methanol]",3.5 ± 0.8 µM,1.7,
"Cc1cn(-c2cccc(CN3CCN(C)CC3)c2)nc1-c1cccc(CN(C)C)c1 [Compound 65, N,N-dimethyl-1-[3-[4-methyl-1-[3-[(4-methylpiperazin-1-yl)methyl]phenyl]pyrazol-3-yl]phenyl]methanamine]",2.1 ± 0.4 µM,1.64,
"Cc1cn(-c2cccc(CN(C)C)c2)nc1-c1cccc(CN(C)CCCN(C)C)c1 [Compound 70, N′-[[3-[1-[3-(Dimethylaminomethyl)phenyl]-4-methyl-pyrazol-3-yl]phenyl] Methyl]-N,N,N′-trimethyl-propane-1,3-diamine]",2.1 ± 0.1 µM,3,
"Cc1cn(-c2cccc(CN3CCN(C)CC3)c2)nc1-c1cccc(CN(C)CCCN(C)C)c1 [Compound 71, N,N,N′-Trimethyl-N′-[[3-[4-methyl-1-[3-[(4-methylpiperazin-1-yl)methyl]phenyl]pyrazol-3-yl]phenyl]methyl]propane-1,3-diamine]",1.7 ± 0.1 µM,4,IC50 ([3]; Homo sapiens): 4 ± 0.4 µM
"N′-[[4-[4-[3-(Dimethylamino)propyl]-3-[4-[3-(dimethylamino)propyl]phenyl] Pyrazol-1-yl]phenyl]methyl]-N,N,N′-trimethyl-propane-1,3-diamine [Compound 33]",,,IC50 [3]: 6.8 ± 0.3 µM; CC50 [4]: > 100 µM; Cytotox. CC50 [4]: 100 µM; p62 [1]: 1.04 Fold-change; IC50 [2]: 9.7 ± 1.2 µM

# Now from value to molecule, other results behind:
IC50 ([2]; Homo sapiens),Molecule,fold induction at 3 µM [1],further results
2.5 ± 0.2 µM,"CN(C)CCCc1ccc(-c2nn(-c3ccc(CN(C)C)cc3)cc2CN(C)C)cc1 [Compound 24, 3-[4-[4-(Dimethylaminomethyl)-1-[4-(dimethylaminomethyl)phenyl] Pyrazol-3-yl]phenyl]-N,N-dimethyl-propan-1-amine]",1.64,
2.1 ± 0.5 µM,"Cc1cn(-c2cccc(CN(C)C)c2)nc1-c1ccc(CN(C)CCCN(C)C)cc1 [Compound 67, {[4-(1-{3-[(Dimethylamino)methyl]phenyl}-4-methyl-1H-pyrazol-3-yl)phenyl]methyl} [3-(Dimethylamino)propyl]methylamine]",2.5,IC50 ([3]; Homo sapiens): 3.2 ± 1.4 µM
